Test results as given in paper PMC6017874, “Synthesis of New C- and N-β-D-Glucopyranosyl Derivatives of Imidazole, 1,2,3-Triazole and Tetrazole, and Their Evaluation as Inhibitors of Glycogen Phosphorylase” (Molecules : A Journal of Synthetic Chemistry and Natural …, 2018).
pIC50, pKi: −log10 of the molar value. Like-named read-outs stand apart in the source and are kept apart here. Blank lines part the entries; values can stand above or below the compound they belong to.

Columns and labels:
[1] = target: T1, rabbit muscle glycogen phosphorylase b (RMGPb) (Oryctolagus cuniculus, UniProt P00489); test: Inhibition of rabbit muscle glycogen phosphorylase b (enzyme kinetic assay); format: biochemical; parameters: key to Inhibition: N.I.: no inhibition at 625 μM concentration; conditions: for Inhibition: N.I. = no inhibition at 625 μM concentration; for inhibition of RMGPb (in words): investigated concentration range, max 625 μM
T1 sequence (P00489 1-843): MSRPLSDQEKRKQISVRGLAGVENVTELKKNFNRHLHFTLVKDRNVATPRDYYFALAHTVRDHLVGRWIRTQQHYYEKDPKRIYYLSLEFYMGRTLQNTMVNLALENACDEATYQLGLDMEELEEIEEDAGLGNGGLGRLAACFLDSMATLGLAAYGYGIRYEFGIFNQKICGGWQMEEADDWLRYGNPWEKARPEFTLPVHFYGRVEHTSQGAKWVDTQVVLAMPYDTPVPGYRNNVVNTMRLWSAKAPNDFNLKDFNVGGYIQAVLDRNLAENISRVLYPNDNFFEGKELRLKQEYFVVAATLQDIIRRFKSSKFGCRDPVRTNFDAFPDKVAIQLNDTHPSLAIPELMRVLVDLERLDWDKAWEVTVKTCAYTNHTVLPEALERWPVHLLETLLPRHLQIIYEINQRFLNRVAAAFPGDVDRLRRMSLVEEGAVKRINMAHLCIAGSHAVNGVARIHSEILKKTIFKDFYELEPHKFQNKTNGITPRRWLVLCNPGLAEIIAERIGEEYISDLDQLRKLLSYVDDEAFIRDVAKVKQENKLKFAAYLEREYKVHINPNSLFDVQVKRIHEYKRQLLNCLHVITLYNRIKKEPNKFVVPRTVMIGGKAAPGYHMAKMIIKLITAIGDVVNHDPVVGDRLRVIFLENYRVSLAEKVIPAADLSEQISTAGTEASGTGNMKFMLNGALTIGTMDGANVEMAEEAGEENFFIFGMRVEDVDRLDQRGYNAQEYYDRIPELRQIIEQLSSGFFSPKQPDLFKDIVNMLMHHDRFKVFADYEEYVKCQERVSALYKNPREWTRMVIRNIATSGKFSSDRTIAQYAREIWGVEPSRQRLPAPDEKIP
Description: The new compounds were assayed against rabbit muscle glycogen phosphorylase b enzyme (RMGPb) as described earlier and the results are collected in Table 5. The inefficiency of C-glucopyranosyl 1,2,3-triazoles 5 (entries 4–6) as compared to the micromolar inhibition of the N-glucopyranosyl counterparts II in Table 2 came as a surprise, since the size of the heterocycle and the position of the H-bond donor and acceptor sites of the ring must not have been altered by the interchange of the substituents. A comparison of the inhibitory efficiency of N-benzoyl-β-D-gluco-pyranosylamine Ib (entry 1) with its “reversed” counterpart N-phenyl-2,6-anhydro-D-glycero-D-gulo-heptonamide 20 (shown in entry 3) results in a ratio of 38–67 (~53 as an average).

[2] = target: T1, rabbit muscle glycogen phosphorylase b (RMGPb); conditions: cited from earlier work

Inhibition ([1]; RMGPb): N.I.
pKi ([1]; RMGPb, inhibition constants of IIb multiplied by the average factor ~53, read-out: predicted inhibition constant): 2.07 to 2.10
SMILES: OC[C@H]1O[C@@H](c2cn(-c3ccccc3)nn2)[C@H](O)[C@@H](O)[C@@H]1O [5a, 1-Phenyl-4-(β-D-glucopyranosyl)-1H-1,2,3-triazole]

melting point: 224 to 225 °C
Inhibition ([1]; RMGPb): N.I.
SMILES: OC[C@H]1O[C@@H](c2cn(-c3ccc4ccccc4c3)nn2)[C@H](O)[C@@H](O)[C@@H]1O [5b, 1-(Naphthalen-2-yl)-4-(β-D-glucopyranosyl)-1H-1,2,3-triazole]

Inhibition ([1]; RMGPb): N.I.
SMILES: OC[C@H]1O[C@@H](c2cn(-c3cccc4ccccc34)nn2)[C@H](O)[C@@H](O)[C@@H]1O [5c, 1-(Naphthalen-1-yl)-4-(β-D-glucopyranosyl)-1H-1,2,3-triazole]

Inhibition ([1]; RMGPb): N.I.
SMILES: OC[C@H]1O[C@@H](c2nnn(-c3ccccc3)n2)[C@H](O)[C@@H](O)[C@@H]1O [13a, 2-Phenyl-5-(β-D-glucopyranosyl)-2H-tetrazole]

Inhibition ([1]; RMGPb): N.I.
SMILES: Cn1nnc([C@@H]2O[C@H](CO)[C@@H](O)[C@H](O)[C@H]2O)n1 [13e, 2-Methyl-5-(β-D-glucopyranosyl)-2H-tetrazole]

Inhibition ([1]; RMGPb): N.I.
SMILES: Cn1nnnc1[C@@H]1O[C@H](CO)[C@@H](O)[C@H](O)[C@H]1O [14e, 1-Methyl-5-(β-D-glucopyranosyl)-1H-tetrazole]

pIC50 ([1]; RMGPb): 3.22
pKi ([1]; RMGPb, calculated from IC50 by the Cheng-Prusoff equation, read-out: calculated Ki): 3.49
inhibition of RMGPb (in words) [1]: very weak inhibition
SMILES: OC[C@H]1O[C@@H](n2nnc(-c3ccccc3)n2)[C@H](O)[C@@H](O)[C@@H]1O [18a, 5-Phenyl-2-(β-D-glucopyranosyl)-2H-tetrazole]

Inhibition ([1]; RMGPb): N.I.
SMILES: Cc1nnn([C@@H]2O[C@H](CO)[C@@H](O)[C@H](O)[C@H]2O)n1 [18e, 5-Methyl-2-(β-D-glucopyranosyl)-2H-tetrazole]

Inhibition ([1]; RMGPb): N.I.
SMILES: OC[C@H]1O[C@@H](n2nnnc2-c2ccccc2)[C@H](O)[C@@H](O)[C@@H]1O [19a, 5-Phenyl-1-(β-D-glucopyranosyl)-1H-tetrazole]

SMILES: Cc1nnc([C@@H]2O[C@H](CO)[C@@H](O)[C@H](O)[C@H]2O)o1 [IIIa]
pKi [2]: 3.67

SMILES: OC[C@H]1O[C@@H](c2nnc(-c3ccccc3)o2)[C@H](O)[C@@H](O)[C@@H]1O [IIIb]
inhibition at 625 μM ([2]; RMGPb): 10% at 625 μM [37]

SMILES: OC[C@H]1O[C@@H](c2nnc(-c3ccc4ccccc4c3)o2)[C@H](O)[C@@H](O)[C@@H]1O [IIIc]
inhibition at 625 μM ([2]; RMGPb): 10% at 625 μM [37]

SMILES: Cc1nc([C@@H]2O[C@H](CO)[C@@H](O)[C@H](O)[C@H]2O)no1 [IVa]
inhibition at 625 μM (in words) ([2]; RMGPb): No inh. at 625 μM [38]

SMILES: OC[C@H]1O[C@@H](c2noc(-c3ccccc3)n2)[C@H](O)[C@@H](O)[C@@H]1O [IVb]
inhibition at 625 μM ([2]; RMGPb): 10% at 625 μM [38]

SMILES: OC[C@H]1OC(c2nnn[nH]2)[C@H](O)[C@@H](O)[C@@H]1O (some centres unmarked) [VIII, 5-Glucosyltetrazole]
inhibition at 625 μM (in words) ([2]; RMGPb): No inh. at 625 μM [35]
inhibition of RMGPb (in words) [2]: inactive

melting point: 273 to 274 °C
Inhibition ([1]; RMGPb): N.I.
inhibition of RMGPb (in words) [1]: non-inhibitory
SMILES: OC[C@H]1O[C@@H](n2cnc(-c3ccccc3)c2)[C@H](O)[C@@H](O)[C@@H]1O [compound 8, 1-(β-D-Glucopyranosyl)-4-phenyl-1H-imidazole]

SMILES: O=C(Nc1ccccc1)[C@@H]1O[C@H](CO)[C@@H](O)[C@H](O)[C@H]1O [compound 20, N-phenyl-2,6-anhydro-D-glycero-D-gulo-heptonamide, reference compound]
average ratio of inhibitory efficiency of Ib to its reversed counterpart 20 ([1]; RMGPb, average of the 38–67 ratio): ~ 53
ratio of inhibitory efficiency of Ib to its reversed counterpart 20 ([1]; RMGPb, from literature Ki values of Ib and 20): 38–67
pKi ([2]; RMGPb): 2.27
